Data from ChEMBL document CHEMBL1149543, “Discovery of inhibitors of the pentein superfamily protein dimethylarginine dimethylaminohydrolase (DDAH), by virtual screening and hit analysis” (Bioorg Med Chem Lett, 2007).

assay: Inhibition of Pseudomonas aeruginosa DDAH

SMILES	IC50
O=C(Cn1cc(/C=C2\C(=O)NC(=S)N(c3ccccc3)C2=O)c2ccccc21)NCc1ccco1	16.9 µM
O=C(Cn1cc(C=C2C(=O)NC(=S)NC2=O)c2ccccc21)NCc1ccco1	6.4 µM
COc1ccc(N2C(=O)/C(=C/c3c[nH]c4ccccc34)C(=O)NC2=S)cc1	2 µM
